Test results reported in patent US20050154230A1, “Urea derivatives” (Bayer HealthCare AG, priority 2001, published 2005).

Columns and labels:
human VR1 = target: T1, human VR1 (Homo sapiens, UniProt Q8NER1); assay: Capsaicin-induced Ca2+ influx in the human VR1-transfected CHO cell line (Assay 1); format: cell-based; details: human VR1-CHOluc9aeq cells, 10 nM capsaicin; compound purity about 40 to 90%; read-out: hVR1 class
T1 construct: expressed in transfected cells
How it was run: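 CHO cells expressing human VR1 with an aequorin reporter were treated with compound or vehicle for 20 min at 25° C. Capsaicin-induced Ca^2+ influx was then measured on an FDSS-3000. Integral R was calculated and compared with controls.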

T1 sequence (Q8NER1 whole entry): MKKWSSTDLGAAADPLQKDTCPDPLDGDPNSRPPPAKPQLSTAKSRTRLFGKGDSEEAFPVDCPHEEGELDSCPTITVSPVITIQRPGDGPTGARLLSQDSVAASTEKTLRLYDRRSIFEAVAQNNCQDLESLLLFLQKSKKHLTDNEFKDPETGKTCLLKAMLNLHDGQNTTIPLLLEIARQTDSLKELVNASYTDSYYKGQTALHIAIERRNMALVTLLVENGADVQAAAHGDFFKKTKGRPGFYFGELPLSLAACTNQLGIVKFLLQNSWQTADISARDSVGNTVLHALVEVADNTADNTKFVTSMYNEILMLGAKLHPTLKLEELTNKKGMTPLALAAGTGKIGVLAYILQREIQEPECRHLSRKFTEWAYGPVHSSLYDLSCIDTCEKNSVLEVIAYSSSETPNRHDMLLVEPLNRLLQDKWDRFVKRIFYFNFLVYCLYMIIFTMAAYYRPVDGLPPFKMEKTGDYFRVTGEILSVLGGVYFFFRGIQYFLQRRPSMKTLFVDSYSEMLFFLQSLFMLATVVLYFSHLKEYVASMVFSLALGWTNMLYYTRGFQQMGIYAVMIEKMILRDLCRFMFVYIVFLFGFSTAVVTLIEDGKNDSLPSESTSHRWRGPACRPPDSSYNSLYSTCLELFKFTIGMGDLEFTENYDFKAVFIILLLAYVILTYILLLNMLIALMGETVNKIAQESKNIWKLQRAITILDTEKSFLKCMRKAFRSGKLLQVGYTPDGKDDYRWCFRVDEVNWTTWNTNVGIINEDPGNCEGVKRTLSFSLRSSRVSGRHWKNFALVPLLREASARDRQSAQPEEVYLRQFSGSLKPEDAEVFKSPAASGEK

| melting point | IC50 (human VR1) | Compound |
| --- | --- | --- |
| 196 °C | < 100 nM | CCOC(=O)c1ccc(-c2cccc(NC(=O)Nc3ccccc3CCO)c2)cc1 [Example 225] |
| 133 °C | < 100 nM | CCOC(=O)c1cccc(-c2cccc(NC(=O)Nc3ccccc3CCO)c2)c1 [Example 226] |
| 141 to 143 °C | < 100 nM | COc1ccc(Cl)cc1-c1cccc(NC(=O)Nc2ccccc2CCO)c1 [Example 227] |
| 126 to 129 °C | < 100 nM | COc1ccc(Cl)cc1-c1cccc(NC(=O)Nc2ccccc2CCO)c1 [Example 228] |
| 197 to 198 °C | < 100 nM | O=C(Nc1cccc(-c2ccc([N+](=O)[O-])cc2)c1)Nc1ccccc1CCO [Example 229] |
| 180 to 182 °C | < 100 nM | N#Cc1ccc(-c2cccc(NC(=O)Nc3ccccc3CCO)c2)cc1 [Example 230] |
| 180 to 181 °C | 500 to 1000 nM | COc1cccc(OC)c1-c1cccc(NC(=O)Nc2ccccc2CCO)c1 [Example 231] |
| 186 to 187 °C | < 100 nM | N#Cc1cccc(-c2cccc(NC(=O)Nc3ccccc3CCO)c2)c1 [Example 232] |
| 185 to 187 °C | 100 to 500 nM | O=C(Nc1cccc(-c2ccccc2Cl)c1)Nc1cc(C(F)(F)F)ccc1CCO [Example 233] |
| 188 °C | < 100 nM | O=C(Nc1cccc(-c2cccc([N+](=O)[O-])c2)c1)Nc1ccccc1CCO [Example 234] |
| 158 to 160 °C | < 100 nM | COc1ccc(F)cc1-c1cccc(NC(=O)Nc2ccccc2CCO)c1 [Example 235] |
| 181 to 182 °C | < 100 nM | O=C(Nc1cccc(-c2ccc(OCc3ccccc3)c(F)c2)c1)Nc1ccccc1CCO [Example 236] |
| 81 to 83 °C | 100 to 500 nM | COc1cc(-c2cccc(NC(=O)Nc3ccccc3CCO)c2)cc(OC)c1OC [Example 237] |
| 180 °C | < 100 nM | O=C(Nc1cccc(-c2cccc(C(F)(F)F)c2)c1)Nc1ccccc1CCO [Example 238] |
| 166 °C | < 100 nM | O=C(Nc1cccc(-c2cccc(OC(F)(F)F)c2)c1)Nc1ccccc1CCO [Example 239] |
| 184 °C | < 100 nM | O=C(Nc1cccc(-c2ccc(OC(F)(F)F)cc2)c1)Nc1ccccc1CCO [Example 240] |

| melting point | IC50 (human VR1) | Compound |
| --- | --- | --- |
| 153 °C | < 100 nM | O=C(Nc1cccc(-c2ccccc2C(F)(F)F)c1)Nc1ccccc1CCO [Example 241] |
| 163 °C | < 100 nM | COc1cccc(-c2cccc(NC(=O)Nc3ccccc3CCO)c2)c1 [Example 242] |
| 159 °C | < 100 nM | O=C(Nc1ccc(-c2ccccc2)s1)Nc1ccccc1CCO [Example 243] |
| 178 °C | 100 to 500 nM | O=C(Nc1ccc(-c2ccccc2)c(Cl)c1)Nc1ccccc1CCO [Example 244] |
| 191 to 193 °C | 100 to 500 nM | O=C(Nc1cccc(-c2ccccc2Cl)c1)Nc1ccc(Cl)cc1CCO [Example 245] |
| 209 to 211 °C | 500 to 1000 nM | O=C(Nc1cccc(-c2ccc(Cl)cc2)c1)Nc1ccc(Cl)cc1CCO [Example 246] |
| 190 °C | < 100 nM | O=C(Nc1cccc(-c2ccoc2)c1)Nc1ccccc1CCO [Example 247] |
| 194 °C | < 100 nM | Cc1ccc(-c2cccc(NC(=O)Nc3ccccc3CCO)c2)cc1Cl [Example 248] |
| 180 °C | < 100 nM | O=C(Nc1cccc(-c2ccc(Cl)c(F)c2)c1)Nc1ccccc1CCO [Example 249] |
| 182 to 183 °C | < 100 nM | O=C(Nc1ccccc1CCO)Nc1cccc2c1Cc1ccccc1-2 [Example 253] |
| 201 °C | 100 to 500 nM | O=C(Nc1ccc(Cl)c(C(F)(F)F)c1)Nc1cccc(C(F)(F)F)c1CCO [Example 254] |
| 209 °C | < 100 nM | O=C(Nc1ccc(Cl)c(C(F)(F)F)c1)Nc1cccc(Br)c1CCO [Example 255] |
| 201 °C | < 100 nM | Cc1cccc(NC(=O)Nc2ccc(Cl)c(C(F)(F)F)c2)c1CCO [Example 256] |
| 173 °C | 100 to 500 nM | O=C(Nc1ccc(Cl)c(C(F)(F)F)c1)Nc1cccc(-c2ccccc2)c1CCO [Example 257] |
| 213 °C | < 100 nM | Cc1cccc(NC(=O)NCc2ccc(C(F)(F)F)cc2)c1CCO [Example 258] |
